Legend:
[1] = target: T1, OR5AN1 olfactory receptor (Homo sapiens, UniProt Q8NGI8); assay: MUSCENONE®/musk dose-response on OR5AN1 in presence and absence of putative modulator (EC50 shift, span); format: cell-based; conditions: enhancer at 250 μM, FIG. 3A
T1 construct: expressed in transfected cells
T1 sequence (Q8NGI8 1-311): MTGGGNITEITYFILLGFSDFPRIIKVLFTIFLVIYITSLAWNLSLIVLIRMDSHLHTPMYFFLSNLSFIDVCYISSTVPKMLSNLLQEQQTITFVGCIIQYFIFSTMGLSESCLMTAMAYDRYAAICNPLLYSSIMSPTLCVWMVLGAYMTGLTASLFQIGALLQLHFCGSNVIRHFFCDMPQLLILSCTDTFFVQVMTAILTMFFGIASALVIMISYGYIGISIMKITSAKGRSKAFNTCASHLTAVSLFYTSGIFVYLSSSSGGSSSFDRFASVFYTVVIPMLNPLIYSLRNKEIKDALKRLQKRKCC
Method: Next, two parallel dose-response experiments to confirm the true enhancement properties of the potential candidates were performed. First, a dose-response of each individual candidate was performed to determine if it was an agonist by itself.
The resulting enhancement was quantified by means of EC50-fold shift (potency increase) and the efficacy span ratio (efficacy increase).
The EC50-fold shift was obtained by dividing the EC50 of MUSCENONE® +compound by the reference EC50 MUSCENONE® alone. The span ratio was obtained by dividing the span of MUSCENONE®+compound by the reference span of MUSCENONE® alone.

[2] = target: T1, OR5AN1 olfactory receptor; assay: Allosteric EC50 shift analysis: MUSCENONE® dose response with serial concentrations of enhancer; format: cell-based
Method: (§1) The level of enhancement of the OR5AN1 olfactory receptor activation was evaluated at distinct concentrations of the enhancer. […] The curves were obtained by applying the simplified Allosteric EC50 shift effect equation (available in Prism5, v. 5.02) derived from the ternary complex interaction model.

[3] = test system: OR5AN1 allele 3; assay: Cell based assay of hypofunctional OR5AN1 allele 3 with and without enhancer; parameters: species or system human; conditions: allele 3, presence vs absence of enhancer
[4] = target: T1, OR5AN1 olfactory receptor; assay: Dose-response of individual candidate alone (intrinsic agonist activity) on OR5AN1; format: cell-based
Method: 15 candidates, marked as “enhancement” in Table 2 were identified. Strikingly, 80% of these putative enhancers (12/15) belonged to the same class of chemicals: unsaturated aliphatic aldehydes. Next, two parallel dose-response experiments to confirm the true enhancement properties of the potential candidates were performed. First, a dose-response of each individual candidate was performed to determine if it was an agonist by itself. Second, a MUSCENONE® dose-response curve in the presence and absence of a 250 μM concentration of the putative modulator was assessed for EC50 shifts.

[5] = test system: OR5AN1 allele 4; assay: Cell based assay of hypofunctional OR5AN1 allele 4 with and without enhancer; parameters: species or system human; conditions: allele 4, presence vs absence of enhancer
[6] = target: T2, Olfr1440 (Mus musculus, UniProt Q8VFV4); assay: Control enhancement experiment on mouse ortholog receptor; format: cell-based
T2 construct: expressed in transfected cells
T2 sequence (Q8VFV4 1-315): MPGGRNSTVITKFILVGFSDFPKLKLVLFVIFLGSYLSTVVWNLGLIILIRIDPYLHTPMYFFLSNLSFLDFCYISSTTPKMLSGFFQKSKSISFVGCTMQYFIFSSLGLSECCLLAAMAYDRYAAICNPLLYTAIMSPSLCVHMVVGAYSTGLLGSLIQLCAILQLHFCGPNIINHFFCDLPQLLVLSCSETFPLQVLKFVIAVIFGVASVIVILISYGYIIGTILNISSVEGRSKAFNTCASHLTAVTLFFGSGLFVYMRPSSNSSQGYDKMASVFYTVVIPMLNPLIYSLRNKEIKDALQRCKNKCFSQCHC
Method: as §1
Furthermore and as a control, a similar experiment was performed on the mouse MUSCENONE® responsive odorant receptor Olfr1440, the ortholog of OR5AN1.

In the case of `CCCCCCCCCC/C=C/C=O` [tridecylenic aldehyde], the “Maximal activation level (span) of MUSCENONE®” value [1] is reported as “increased span”, the “α (cooperativity factor)” value ([2]; Allosteric EC50 shift model, enhancer 0 to 1 mM) is reported as 15.7 and the Kb ([2]; read-out: KB (equilibrium dissociation constant)) is reported as 259 µM. For the same compound, the Activity span-ratio [3] was 2.02, the “Activation of OR5AN1 by the compound by itself” value [4] was “did not activate the OR5AN1 olfactory receptor by itself” and the “Activation by compound alone relative to the MUSCENONE® activation window” value ([4]; above approximately 100 μM) was “less than 8%”. The Activity span-ratio [5] was 2.16 and the “Effect on Olfr1440 MUSCENONE®-induced activation” value [6] was “slight inhibition”.
